Results reported in publication PMC9964319, “Half-Sandwich Rhodium Complexes with Releasable N-Donor Monodentate Ligands: Solution Chemical Properties and the Possibility for Acidosis Activation” (Pharmaceutics, 2023).
Like-named read-outs stand apart in the source and are kept apart here.

Tests used:
[1] = test system: testicular tumors; set-up: method as in doi:10.2174/2210298102666220404102936; details: cited from earlier work
[2] = Release of pyridine ligand from synthesized complex followed by 1H NMR; type: physicochemical
Source text: The rate of the release of the monodentate ligand from the synthesized mixed-ligand complex is also of interest. Although a mixed-ligand complex with low stability should release its monodentate ligand easily, kinetic inertness has a major effect on reaching the equilibrium state. In contrast to their non-organometallic octahedral counterparts, half-sandwich Ru(II) and Rh(III) complexes have faster ligand exchange reactions.

[3] = Stability of mixed-ligand complex in methanol (1H NMR in CD3OD); type: physicochemical
Source text: ^1H NMR (CD3OD, ppm, 500 MHz, standard: δ 3.31 (solvent residual peak)): δ 9.76 (dd, J = 5.2 Hz, 0.87 Hz, 2H, phen-H^2,9), δ 8.99 (dd, J = 8.3 Hz, 1.2 Hz, 2H, phen-H^4,7), δ 8.49 (d, J = 5.2 Hz, 2H, Py-H^2,6), δ 8.40 (dd, J = 8.2 Hz, 5.2 Hz, 2H, phen-H^3,8), δ 8.25 (s, 2H, phen-H^5,6), δ 7.91 (tt, J = 7.7 Hz, 1.4 Hz, 1H, Py-H^4), δ 7.46 (t, J = 7.1 Hz, 2H, Py-H^3,5), δ 1.75 (s, 15H, Cp*-H^methyl). Deuteration of Cp* is visible and highlighted in the spectrum in Figure S9. A small amount (<5%) of dissociated complex is visible in equilibrium with the complex, indicating the low stability of the mixed-ligand complex even in methanol.

[4] = Proton dissociation constants of the coordinated water in [M(arene)(N,N/O)(H2O)]2+/+ complexes (UV-vis titration); details: I = 0.10 M (KCl); t = 25.0 °C; UV-vis
Source text: The proton dissociation of the aqua ligand in the [M(arene)(N,N/O)(H2O)]^2+/+ complexes (Scheme 2) results in the inert mixed-hydroxido species (general formula: [M(arene)(N,N/O)(OH)]^+/0).

[5] = Kinetics of mixed-ligand complex formation followed by UV-vis; type: physicochemical; details: complex:1-methylimidazole 1:2, pH 7.4 (phen, Figure 2) or 5.94 (en, Figure S23)
Protocol: Firstly, the reactions were followed by UV-vis spectrometry, and significant changes in the charge transfer bands were observed. Based on these preliminary measurements, the waiting time needed prior to measurement was determined. Generally, the reaction was faster for the RhCp* complexes than for the Ru(p-cym) analogs. […] The [Ru(p-cym)(en/phen)(H2O)]^2+ complexes reached chemical equilibrium within only hours, while the reaction between 1-methylimidazole and [RhCp*(phen)(H2O)]^2+ (Figure 2) or [RhCp*(en)(H2O)]^2+ (Figure S23) was completed within 90 min. However, the fractions of the mixed-ligand complexes cannot be determined from these spectral changes in the chemical equilibrium; thus, further experiments were carried out to determine the formation constants.
Figure 2 (a) Time-dependent UV-vis spectra of the c([RhCp*(phen)(H2O)]^2+):c(1-methylimidazole) = 1:2 mixture under physiological conditions (pH = 7.4 (PBS’ buffer)). (b) Time dependence of the absorbance values at 400 nm. {c([RhCp*(phen)(H2O)]^2+) = 200 μM; c(1-methylimidazole) = 400 μM; pH = 7.40 (PBS’); t = 25 °C; ℓ = 1 cm}.

[6] = physchem
Protocol: (§6) pH-potentiometric measurements were performed to determine the protonation constants (Kp) of the ligands and the concentration of the stock solutions. These measurements were carried out at 25.0 ± 0.1 °C in water in a pH range between 2.0 and 11.5, titrating with carbonate-free KOH solution (0.10 M). […] A Thermo Scientific 0710A0 benchtop pH meter (Waltham, MA, USA), equipped with a Metrohm combined electrode (type 6.0234.100) and a Metrohm 665 Dosimat burette (Metrohm, Herisau, Switzerland) was used for these measurements. […] The initial volume of the samples was 10.0 mL, and the ligand concentration was 2.0 mM in the samples. Samples were degassed by bubbling purified argon prior to and during the measurements. The computer program Hyperquad2013 [28] was utilized to determine the protonation constants of the ligands and concentration.
(§7) The protonation constants (Kp) were determined by pH-potentiometric and UV-vis spectrophotometric titrations in the presence of 0.1 M KCl (see Table 1 and Figures S21 and S22 for examples).

[7] = cited from earlier work
[8] = Fractions of mixed-ligand complexes at 1:1 ratio at pH 6.0 and 7.4 by 1H NMR (screening of monodentate ligands); type: physicochemical; details: pH 6.0 and 7.4
Protocol: In the preliminary studies, the co-ordination ability of the monodentate ligands to the [RhCp*(en)(H2O)]^2+, [RhCp*(phen)(H2O)]^2+, and [RhCp*(8HQH-1)(H2O)]^+ complexes was tested (Chart 2). The samples contained the aqua complex and the monodentate ligand in a 1:1 ratio and were buffered at pH = 6.0 and pH = 7.4. For an ideal drug candidate, all of the monodentate ligand would be bound at pH 7.4; thus, the mixed-ligand complex would be present exclusively, which dissociates completely at pH 6.0.
Figure 1 Fractions of the formed mixed-ligand [RhCp*(N,N/O)(N)]^2+/+ complexes at c(complex):c(monodentate ligand) = 1:1 ratio measured at pH = 6.0 (full bars) and 7.4 (checkered bars). Fractions were determined by the integration of the peaks in the ^1H NMR spectra. The percentage values above the columns show the difference in the fractions of the mixed-ligand complex at the two pH values. {c([RhCp*(phen)(H2O)]^2+) = c([RhCp*(en)(H2O)]^2+) = 1 mM; c([RhCp*(8HQH−1)(H2O)]^+) = 500 μM; 10% D2O; pH = 6.0 or 7.4 (PBS’); t = 25.0 °C}. […] The percentages were assigned to (N,N) = en, (N,N) = phen and (N,O) = 8HQH-1 by bar colour only.

[9] = I = 0.10 M (KCl); t = 25.0 °C; pH-potentiometry (benzimidazole: UV-vis)
Protocol: as §6, §7

[10] = test system: Colo205 human colon adenocarcinoma cell line (doxorubicin-sensitive); test: MTT assay, cytotoxicity at pH 6 and 7; type: cell-based; details: Homo sapiens, COLO 205, Colo205, 72 h incubation, read-out: IC50
Protocol: (§1) All cell culture reagents were obtained from Sigma-Aldrich (Merck KGaA, Darmstadt, Germany) and plasticware from Sarstedt (Nümbrecht, Germany). Human colonic adenocarcinoma cell lines Colo205 (catalog number: ATCC-CCL-222) and its doxorubicin-resistant counterpart Colo320 (catalog number: ATCC-CCL-220.1) were purchased from LGC Promochem (Teddington, UK). The cells were cultured in RPMI 1640 medium supplemented with 10% heat-inactivated fetal bovine serum, 2 mM L-glutamine, 1 mM sodium pyruvate, and 100 mM HEPES buffer, adjusting the pH to 6.0 or 7.0. The cells were incubated at 37 °C in a 5% CO2–95% air atmosphere. The semiadherent human colon cancer cells were detached with Trypsin-Versene solution for 5 min at 37 °C.
(§2) The solutions were freshly prepared prior to measurements (see Section 2.1). […] Firstly, these samples were diluted in complete culture medium; then, two-fold serial dilutions of the compounds were prepared in 100 μL of RPMI 1640, horizontally. The semiadherent colonic adenocarcinoma cells were treated with Trypsin-Versene solution. They were adjusted to a density of 1 × 10^4 cells in 100 μL of RPMI 1640 medium and were added to each well, with the exception of the medium control wells. The final volume of the wells containing compounds and cells was 200 μL. Samples were triplicated. The pH of the medium was adjusted to 6.0 or 7.0.
(§3) The culture plates were incubated at 37 °C for 72 h; at the end of the incubation period, 20 μL of MTT solution (from a stock solution of 5 mg/mL) was added to each well. After incubation at 37 °C for 4 h, 100 μL of SDS solution (10% in 0.01 M HCI) was added to each well, and the plates were further incubated at 37 °C overnight. Cell growth was determined by measuring the optical density (OD) at 540/630 nm with a Multiscan EX ELISA reader (Thermo Labsystems, Cheshire, WA, USA). […] Curves were fitted using GraphPad Prism software (2022, version 9.4.1, Graphpad Software (LLC) d.b.a Dotmatics, San Diego, CA, USA) using the sigmoidal dose–response model (comparing variable and fixed slopes).
(§4) The pH-dependent solution speciation of the selected mixed-ligand complexes is an important feature in the hypothesized mechanism of action, and the modeling of acidosis is necessary for the in vitro anticancer assays. In order to find out the cytotoxicity difference based on the pH of the medium, cytotoxic activity was determined at pH 6 and 7 by MTT assay in two human colon adenocarcinoma cell lines (doxorubicin-sensitive Colo205 and doxorubicin-resistant Colo320). […] The mixed-ligand complexes were prepared prior to the measurements, as was already described in Section 2.1. With this method, the effect of the different counter ions could be avoided, and a more adequate comparison of the mixed-ligand complexes could be conducted.

[11] = test system: Colo320 human colon adenocarcinoma cell line (doxorubicin-resistant); test: MTT assay, cytotoxicity at pH 6 and 7; type: cell-based; details: Homo sapiens, COLO 320, Colo320, 72 h incubation, read-out: IC50
Protocol: as §1, §2, §3, §4

[12] = test system: E. coli 32313 (resistant); test: Antibacterial assay, MIC in 96-well plates at different pH; type: cell-based; details: Escherichia coli
Method in brief: (§5)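 Broth microdilution MIC per CLSI in Mueller Hinton broth, with overnight culture diluted 10,000-fold as inoculum. Each strain and compound tested at pH 5, 6, 7 and 8, in triplicate.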

[13] = test system: E. coli ATCC 25922 (sensitive); test: as above; type: cell-based; details: Escherichia coli
Method in brief: as §5

[14] = test system: S. aureus 272123 (MRSA); test: as above; type: cell-based; details: Staphylococcus aureus
Method in brief: as §5

[15] = test system: S. aureus ATCC 25923 (methicillin-susceptible); test: as above; type: cell-based; details: Staphylococcus aureus
Method in brief: as §5

Question: Which cure rates [1] does the source give for `N.N.[Cl][Pt][Cl]` [Cisplatin] here?
Answer: Its cure rates is “above 95%”.

Question: Which results are given for `Cc1c(C)c(C)[c-](C)c1C.NCCN.O=S(=O)([O-])C(F)(F)F.O=S(=O)([O-])C(F)(F)F.[Rh+3].c1ccncc1` [Complex 2]?
Answer: monodentate ligand dissociated ([2]; pH 6.0, after 5 min): ~ 75%; released monodentate ligand at chemical equilibrium ([2]; pH 6.0, after half an hour): ~ 94%

Question: Which “dissociated complex in equilibrium with the complex” value [3] does the source give for `Cc1c(C)c(C)[c-](C)c1C.O=S(=O)([O-])C(F)(F)F.O=S(=O)([O-])C(F)(F)F.[Rh+3].c1ccncc1.c1cnc2c(c1)ccc1cccnc12` [Complex 4] here?
Answer: Its value is < 5%.

Question: What does the source list for `Cc1c(C)c(C)[c-](C)c1C.NCCN.O.[Rh+3]` [[RhCp*(en)(H2O)]2+]?
Answer: pKa of the coordinated water molecule [4]: 10.6±0.1; time to completion of the reaction with 1-methylimidazole [5]: ≤ 90 min

Question: With `Cc1c(C)c(C)[c-](C)c1C.O.[Rh+3].c1cnc2c(c1)ccc1cccnc12` [[RhCp*(phen)(H2O)]2+] as the compound, how does the “pKa of the coordinated water molecule” value [4] read?
Answer: The value was 10.05±0.01.

Question: What about the “time to completion of the reaction with 1-methylimidazole” value [5] of the same compound?
Answer: Its value is ≤ 90 min.

Question: What does the source list for `c1ccc2[nH]cnc2c1` [benzimidazole]?
Answer: pKa ([6]; water with 0.10 M KCl): 5.44 ± 0.01; logKp (= pKa), literature data [7]: 5.54 [44]

Question: Which “interaction (co-ordination) with the RhCp* aqua complexes” value [8] does the source give for `CN` [methylamine] here?
Answer: The value was “no interaction was found”.

Question: And the “logKp (= pKa)” value [9]?
Answer: Its value is 10.58 ± 0.03.

Question: What about the “logKp (= pKa), literature data” value [7] of the same compound?
Answer: The value was 10.51 [47].

Question: Which IC50 ([10]; pH 6) does the source give for `Cn1ccnc1` [mim, 1-methylimidazole, reference compound] here?
Answer: Its IC50 is > 100 µM.

Question: And the IC50 ([10]; pH 7)?
Answer: Its IC50 is > 100 µM.

Question: And the IC50 ([11]; pH 6)?
Answer: Its IC50 is > 100 µM.

Question: And the IC50 ([11]; pH 7)?
Answer: Its IC50 is > 100 µM.

Question: What about the MIC ([12]; 24 h, E. coli resistant, pH 5, after one day, read-out: MIC) of the same compound?
Answer: The MIC was > 100 µM.

Question: What about the MIC ([12]; 24 h, E. coli resistant, pH 6, after one day, read-out: MIC) of the same compound?
Answer: Its MIC is > 100 µM.

Question: And the MIC ([12]; 24 h, E. coli resistant, pH 7, after one day, read-out: MIC)?
Answer: The MIC was > 100 µM.

Question: And the MIC ([12]; 24 h, E. coli resistant, pH 8, after one day, read-out: MIC)?
Answer: The MIC was > 100 µM.

Question: And the MIC ([12]; any of the bacterial strains, resistant E. coli, read-out: MIC (no antibacterial effect))?
Answer: The MIC was > 100 µM.

Question: And the MIC ([13]; ATCC25922, 24 h, E. coli sensitive, pH 5, after one day, read-out: MIC)?
Answer: Its MIC is > 100 µM.

Question: What about the MIC ([13]; ATCC25922, 24 h, E. coli sensitive, pH 6, after one day, read-out: MIC) of the same compound?
Answer: The MIC was > 100 µM.

Question: What about the MIC ([13]; ATCC25922, 24 h, E. coli sensitive, pH 7, after one day, read-out: MIC) of the same compound?
Answer: The MIC was > 100 µM.

Question: What about the MIC ([13]; ATCC25922, 24 h, E. coli sensitive, pH 8, after one day, read-out: MIC) of the same compound?
Answer: The MIC was > 100 µM.

Question: And the MIC ([13]; ATCC25922, any of the bacterial strains, E. coli, read-out: MIC (no antibacterial effect))?
Answer: Its MIC is > 100 µM.

Question: And the MIC ([14]; 24 h, pH 5, after one day, read-out: MIC)?
Answer: Its MIC is > 100 µM.

Question: And the MIC ([14]; 24 h, pH 6, after one day, read-out: MIC)?
Answer: Its MIC is > 100 µM.

Question: What about the MIC ([14]; 24 h, pH 7, after one day, read-out: MIC) of the same compound?
Answer: Its MIC is > 100 µM.

Question: And the MIC ([14]; 24 h, pH 8, after one day, read-out: MIC)?
Answer: Its MIC is > 100 µM.

Question: What about the MIC ([14]; any of the bacterial strains, read-out: MIC (no antibacterial effect)) of the same compound?
Answer: The MIC was > 100 µM.

Question: What about the MIC ([15]; ATCC25923, 24 h, S. aureus sensitive, pH 7, after one day, read-out: MIC) of the same compound?
Answer: The MIC was > 100 µM.

Question: What about the MIC ([15]; ATCC25923, 24 h, S. aureus sensitive, pH 8, after one day, read-out: MIC) of the same compound?
Answer: Its MIC is > 100 µM.

Question: And the MIC ([15]; ATCC25923, any of the bacterial strains, S. aureus, read-out: MIC (no antibacterial effect))?
Answer: Its MIC is > 100 µM.

Question: And the pKa [6]?
Answer: Its pKa is 7.14 ± 0.01.
